{"source": "patent US11596622B2", "about": "“Mazindol treatment for heroin dependence and substance use disorder” (NLS Pharmaceutics AG, priority 2017, dated 2023)", "type_in_all_cases": "in vivo", "key": {"[1]": {"assay": "Heroin intoxication procedure after Jiang et al., mortality", "details": "two subcutaneous injections/day of heroin at increasing doses (3 to 30 mg/kg)", "protocol": "In the protocol planned before, it was planned to follow the method used by Jiang et al. Mice had to receive two subcutaneous injections/day of heroin at increasing doses (3 to 30 mg/kg) for 9 consecutive days and a single injection on the 10th day. […] It is likely that the discrepancy of toxicity between our experiments and the study of Jiang et al. partly resulted from difference in purity of heroin. Therefore, it was necessary to develop a method allowing to observe clear withdrawal symptoms and an acceptable mortality rate. This method is presented below. For information, 178 rats, including those used for the development of the method, have been used for this study of which 54 have been included in the results presented here."}, "Sprague-Dawley rats": {"tested_on": "Sprague-Dawley rats", "assay": "Naloxone precipitated withdrawal syndrome of heroin", "protocol": "The abrupt cessation of chronic opiate use results in a well characterized withdrawal syndrome with symptoms that include pain sensitivity, dysphoria, irritability, restlessness, insomnia, diarrhea and hyperventilation. In the present model, the naloxone-precipitated withdrawal syndrome is measured in rodents. Animals are chronically treated with a drug, e.g. morphine or heroin. Opiate withdrawal syndrome is elicited by an acute injection of the opiate antagonist Naloxone.\nThe effect of mazindol on heroin withdrawal syndrome elicited by naloxone was examined in Sprague-Dawley rats using a method similar to the one used by Jiang et al. (10),\nAnimals were subdivided into two groups. One group received heroin two i.p. injections/day for 12 consecutive days and a single injection on the 13th day (total: 25 injections) as exposed in Table 3 group received saline instead of heroin following the same protocol.\nOn day 13, animals received treatments and were tested according to the following time schedule: • T=0: i.p. injection of heroin (15 mg/kg) or vehicle. • T=2.5 h: animals individually placed in a transparent Plexiglas observation boxes (40×40×40 cm). • T=3.5 h: i.p. injection of treatment (see below). • T=4 h: i.p. injection of naloxone (5 mg/kg), start of test: observation of withdrawal symptoms as indicated in Table 4. • T=5 h: end of test, animals placed back into their home cages.\nAnimals received the following treatments at T 3.5 h (i.e. 30 min before injection of naloxone and observation of symptoms): • 1) Animals treated with saline during the intoxication period (days 1-12) and at T0 on day 13: • Saline group (N=8): saline (0.9% NaCl). • 2) Animals treated with […] during the intoxication period (days 1-12) and at T0 on day 13: • Hero group (N=14): saline (0.9% NaCl). • Amph 1 group (N=4): D-amphetamine (1 mg/kg). • Maz 0.125 group (N=5): mazindol (0.125 mg/kg). • Maz 0.25 group (N=6): mazindol (0.25 mg/kg). • Maz 0.5 group (N=6): mazindol (0.5 mg/kg). • Maz 1 group (N=6): mazindol (1 mg/kg). • Maz 2 group (N=5): mazindol (2 mg/kg).\nA weighting factor was ascribed for each sign from which a score was calculated.\nExamples: • Body weight before naloxone injection=241 g; after naloxone injection=236 g: • Weight loss score=2=100×(241−236)/241 • Number of escape attempts=8: • Score for escape attempts=2 • Profuse salivation present: • Score for profuse salivation\nA global withdrawal score was then calculated: • Global score=the sum of the scores"}, "C57BL/6J mice": {"tested_on": "C57BL/6J mice", "assay": "Conditioned place preference induced by the drug itself", "details": "for Distance travelled in the drug-paired compartment / Distance travelled in the two compartments (Drug + Vehicle) / Distance travelled in the vehicle-paired compartment / Distance travelled, drug-paired minus vehicle-paired compartment / Time spent in the drug-paired compartment / Time spent in the vehicle-paired compartment / Time spent, drug-paired minus vehicle-paired compartment: vehicle before preference session, day 12, mean", "description": "Conditioned place preference (CPP) is a widely used procedure for studying the potential addictive effect of drugs. CPP is based upon the tendency of rodents to approach a stimulus that has previously been paired with an incentive state induced by a drug. A drug that induces a CPP may be suspected to present reinforcing effects that could lead to addiction. Numerous addictive drugs, such as opiate agonists or stimulants induce a CPP and a behavioral sensitization.\nThe effect of mazindol on place preference was examined in C57BL/6J mice using a method similar to the one used by Schlussman et al. (9).\nThe second experiment consisted in determining the optimal dose of heroin which induces the most significant CPP. For this purpose, the CPP induced by heroin at 1.25, 2.5 and 5 mg/kg was examined.\n(§1) Following the habituation session (on day 1), animals (N=72) were pseudo-randomly assigned to two groups, a Control group (N=12) and a Heroin group (N=60), in a way that there was no significant difference between the two groups for the total distance travelled in the apparatus and for the percentage of time spent and the percentage distance travelled in the grey compartment and in the striped compartment.\nAnimals received the following treatments immediately before drug sessions: • Control group: vehicle • Heroin group: heroin (1.25 mg/kg)\nas §1, with “three” for “two”, “(N=12),” for “(N=12) and”, “(N=48) and a Mazindol group (N=12),” for “(N=60),”\nAnimals received the following treatments before drug sessions: • Control group: vehicle, i.p. immediately before session. • Heroin group: heroin (1.25 mg/kg), i.p. immediately before session. • MAZ 2 group: mazindol (2 mg/kg), i.p. 60 min before session.\nAnimals received the following treatments before preference session: • Control group: vehicle of mazindol, i.p. 60 min before testing. • Hero group: vehicle of mazindol, i.p. 60 min before testing. • Hero-Mz 1 group: mazindol (1 mg/kg), i.p. 60 min before testing. • Hero-Mz 2 group: mazindol (2 mg/kg), i.p. 60 min before testing. • Hero-A 1 group: D-amphetamine (1 mg/kg), i.p. 30 min before testing. • MAZ 2 group: vehicle of mazindol, i.p. 60 min before testing."}, "[2]": {"details": "Hero n = 14: heroin i.p. days 1-13 (2-15 mg/kg), saline 30 min before naloxone 5 mg/kg, mean"}, "[3]": {"details": "heroin-treated vs. saline rats, naloxone 5 mg/kg"}, "[4]": {"details": "Hero group N = 12 (Table 6): heroin 1.25 mg/kg i.p. before drug sessions"}, "[5]": {"details": "Hero group N = 24 (Table 5): heroin 1.25 mg/kg i.p. before drug sessions"}}, "data": [{"smiles": "CC(=O)Oc1ccc2c3c1O[C@H]1[C@@H](OC(C)=O)C=C[C@H]4[C@@H](C2)N(C)CC[C@@]341", "note": "[Heroin]", "values": [{"measurement": "mortality", "setting": "[1]", "value": "substantial mortality"}, {"measurement": "Abdominal constrictions score (Abd C)", "setting": "Sprague-Dawley rats; [2]", "value": 4.1}, {"measurement": "Abnormal posture score (Ab P)", "setting": "Sprague-Dawley rats; [2]", "value": 0.2}, {"measurement": "Chromodacryorrhea score (Chr)", "setting": "Sprague-Dawley rats; [2]", "value": 1.1}, {"measurement": "Diarrhea score (Diarr)", "setting": "Sprague-Dawley rats; [2]", "value": 2.0}, {"measurement": "Erection or ejaculation score (Er Ej)", "setting": "Sprague-Dawley rats; [2]", "value": 0.0}, {"measurement": "Escape attempts score (Esc A)", "setting": "Sprague-Dawley rats; [2]", "value": 1.1}, {"measurement": "Facial fasciculation or teeth chattering score (F F T C)", "setting": "Sprague-Dawley rats; [2]", "value": 2.0}, {"measurement": "Global Score", "setting": "Sprague-Dawley rats; [2]", "value": 22.4}, {"measurement": "Irritability score (Irrit)", "setting": "Sprague-Dawley rats; [2]", "value": 0.0}, {"measurement": "Profuse salivation score (Pr Sal)", "setting": "Sprague-Dawley rats; [2]", "value": 5.5}, {"measurement": "Ptosis score (Ptos)", "setting": "Sprague-Dawley rats; [2]", "value": 0.1}, {"measurement": "Swallowing movements score (Sw M)", "setting": "Sprague-Dawley rats; [2]", "value": 0.9}, {"measurement": "Weight loss score (W Los)", "setting": "Sprague-Dawley rats; [2]", "value": 1.9}, {"measurement": "Wet dog shakes score (W D S)", "setting": "Sprague-Dawley rats; [2]", "value": 3.4}, {"measurement": "global score and scores for weight loss, escape attempts, wet dog shake, diarrhea, facial fasciculation or teeth chattering and profuse salivation", "setting": "Sprague-Dawley rats; [3]", "value": "induced an increase"}, {"measurement": "scores for abdominal constrictions and chromodacryorrhea", "setting": "Sprague-Dawley rats; [3]", "value": "non-significantly increased"}, {"measurement": "Distance travelled in the drug-paired compartment", "setting": "C57BL/6J mice; [4]", "value": 7919.1, "unit": "cm"}, {"measurement": "Distance travelled in the two compartments (Drug + Vehicle)", "setting": "C57BL/6J mice; [4]", "value": 13647.5, "unit": "cm"}, {"measurement": "Distance travelled in the vehicle-paired compartment", "setting": "C57BL/6J mice; [4]", "value": 5728.4, "unit": "cm"}, {"measurement": "Distance travelled, drug-paired minus vehicle-paired compartment", "setting": "C57BL/6J mice; [4]", "value": 2190.6, "unit": "cm"}, {"measurement": "Time spent in the drug-paired compartment", "setting": "C57BL/6J mice; [4]", "value": 1063.0, "unit": "s"}, {"measurement": "Time spent in the vehicle-paired compartment", "setting": "C57BL/6J mice; [4]", "value": 737.0, "unit": "s"}, {"measurement": "Time spent, drug-paired minus vehicle-paired compartment", "setting": "C57BL/6J mice; [4]", "value": 325.9, "unit": "s"}, {"measurement": "Distance travelled in the drug-paired compartment", "setting": "C57BL/6J mice; [5]", "value": 7943.6, "unit": "cm"}, {"measurement": "Distance travelled in the two compartments (Drug + Vehicle)", "setting": "C57BL/6J mice; [5]", "value": 13892.0, "unit": "cm"}, {"measurement": "Distance travelled in the vehicle-paired compartment", "setting": "C57BL/6J mice; [5]", "value": 5948.4, "unit": "cm"}, {"measurement": "Distance travelled, drug-paired minus vehicle-paired compartment", "setting": "C57BL/6J mice; [5]", "value": 1995.3, "unit": "cm"}, {"measurement": "Time spent in the drug-paired compartment", "setting": "C57BL/6J mice; [5]", "value": 1023.7, "unit": "s"}, {"measurement": "Time spent in the vehicle-paired compartment", "setting": "C57BL/6J mice; [5]", "value": 776.3, "unit": "s"}, {"measurement": "Time spent, drug-paired minus vehicle-paired compartment", "setting": "C57BL/6J mice; [5]", "value": 247.4, "unit": "s"}, {"measurement": "place preference induced by the drug", "setting": "C57BL/6J mice; heroin 1.25 mg/kg before drug sessions", "value": "induced a place preference"}, {"measurement": "total distance travelled in two compartments (FIG. 3)", "setting": "C57BL/6J mice; heroin 1.25 mg/kg before drug sessions, preference session", "value": "No significant modification"}, {"measurement": "CPP induced by heroin (second experiment)", "setting": "C57BL/6J mice; heroin 1.25, 2.5 and 5 mg/kg", "value": "induced CPP at the three doses tested"}]}]}
